In patent publication US20150148551A1, “GENISTEIN FOR REDUCING LEVELS OF STORAGE COMPOUNDS IN THE TREATMENT AND/OR PREVENTION OF LYSOSOMAL STORAGE DISEASES (LSDS)” (3G THERAPEUTICS, INC., priority 2012, published 2015):

Key:
[1] = tested on: Human dermal fibroblasts (HDFa); assay: Transcriptomic profiling of fibroblasts with DNA microarrays, genes of synthesis and degradation; type: cell-based; conditions: cells cultured in the presence vs absence of genistein
Method: The experiments were conducted to characterise the transcriptomic profile of human fibroblast cells exposed to genistein, and in particular to determine the expression of genes encoding lysosomal enzymes involved in metabolism (i.e. synthesis and degradation) of organic substances. The absence or deficiency of these enzymes' activity is responsible for occurrence of various lysosomal storage diseases (LSD) (including MPS). The tested hypothesis assumed that genistein influences the expression of many genes, among which there are genes coding for enzymes required in metabolism of compounds, which are pathologically stored in LSD. The results provide important information regarding genistein action on the molecular level within the range of gene expression modulation by this substance. The experiment was conducted in biological quintuplicates. Human dermal fibroblasts (HDFa) were exposed in vitro for 1, 24 or 48 hours to: 30, 60 or 100 μM of genistein; 0.05% DMSO (K1); or were untreated (control cells) (K2), and total RNA was isolated and analysed. […]
Total RNA was isolated from fibroblasts using High Pure RNA Isolation Kit according to the protocol and then it was quantitatively evaluated using Quant-It™ RiboGreen® Assay Kit. […]
Standard hybridization and quantitative image analysis procedures—Illumina hybridization protocol and Illumina scanning protocol, were used. […]

EXT1 = assay: DNA microarray, EXT1 expression in fibroblasts exposed to genistein; type: cell-based, human
Method: (§1) The experiments were conducted to characterise the transcriptomic profile of human fibroblast cells exposed to genistein, and in particular to determine the expression of genes encoding lysosomal enzymes involved in metabolism (i.e. synthesis and degradation) of organic substances. The absence or deficiency of these enzymes' activity is responsible for occurrence of various lysosomal storage diseases (LSD) (including MPS). The tested hypothesis assumed that genistein influences the expression of many genes, among which there are genes coding for enzymes required in metabolism of compounds, which are pathologically stored in LSD. The results provide important information regarding genistein action on the molecular level within the range of gene expression modulation by this substance. The experiment was conducted in biological quintuplicates. Human dermal fibroblasts (HDFa) were exposed in vitro for 1, 24 or 48 hours to: 30, 60 or 100 μM of genistein; 0.05% DMSO (K1); or were untreated (control cells) (K2), and total RNA was isolated and analysed.
(§2) Fibroblast cells were grown in Dulbecco (DMEM) medium supplemented with 10% fetal bovine serum (FBS) with the addition of 1% antibiotics and anti-fungal agents at 37° C. in humidified atmosphere of 5% CO2, until the required confluency was obtained.
(§3) To determine the effect of tested compound on the transcriptom of the fibroblast cells, the growth medium was replaced with fresh medium, either non-supplemented (0.05% DMSO), or containing genistein (30, 60 or 100 μM, in 0.05% DMSO). The exposure was done for 1, 24 or 48 hours.
(§4) Total RNA was isolated from fibroblasts using High Pure RNA Isolation Kit according to the protocol and then it was quantitatively evaluated using Quant-It™ RiboGreen® Assay Kit.
(§5) Biotinylated cRNA was prepared using Ambion Total PrepAmp Kit for Illumina arrays.
(§6) Standard hybridization and quantitative image analysis procedures—Illumina hybridization protocol and Illumina scanning protocol, were used.
(§7) Processing of the results was done during data definition, including: background correction (using background subtraction method), normalization (using quantile normalization algorithm with Illumina GenomeStudio software package: gene expression module version 1.9.0) and summarization (using method, which sums the values of signal intensities from a set of probes).

HS3ST3A1 = assay: DNA microarray, HS3ST3A1 expression in fibroblasts exposed to genistein; type: cell-based, human
Method: as §1, §2, §3, §4, §5, §6, §7

MAN2B1 = assay: DNA microarray, MAN2B1 expression in fibroblasts exposed to genistein; type: cell-based, human; conditions: for MAN2B1 fold change Average: 48 h vs DMSO
Method: as §1, §2, §3, §4, §5, §6, §7

HEXA = assay: DNA microarray, HEXA expression in fibroblasts exposed to genistein; type: cell-based, human; conditions: for HEXA fold change Average: 48 h vs DMSO
Method: as §1, §2, §3, §4, §5, §6, §7

[2] = tested on: fibroblasts from patients with MPS type I, IIIA and IIIB; conditions: cited from earlier work
ARSG = assay: DNA microarray, ARSG expression in fibroblasts exposed to genistein; type: cell-based, human; conditions: for ARSG fold change Average: 48 h vs DMSO
Method: as §1, §2, §3, §4, §5, §6, §7

NPC1 = assay: DNA microarray, NPC1 expression in fibroblasts exposed to genistein; type: cell-based, human; conditions: for NPC1 fold change Average: 48 h vs DMSO
Method: as §1, §2, §3, §4, §5, §6, §7

O=c1c(-c2ccc(O)cc2)coc2cc(O)cc(O)c12 [genistein, 4′,5,7-trihydroxy-3-phenylchromen-4-one]
expression of genes of synthesis [1]: reduced
EXT1 fold change Average 1h30/1hK1 (EXT1; 30 μM, 1 h vs 0.05% DMSO): 0.9138 fold change
EXT1 fold change Average 24h30/24hK1 (EXT1; 30 μM, 24 h vs 0.05% DMSO): 0.8048 fold change
EXT1 fold change Average 48h30/48hK1 (EXT1; 30 μM, 48 h vs 0.05% DMSO): 0.9291 fold change
EXT1 fold change Average 1h60/1hK1 (EXT1; 60 μM, 1 h vs 0.05% DMSO): 0.9881 fold change
EXT1 fold change Average 24h60/24hK1 (EXT1; 60 μM, 24 h vs 0.05% DMSO): 0.7005 fold change
EXT1 fold change Average 48h61/48hK1 (EXT1; 60 μM, 48 h vs 0.05% DMSO): 0.7648 fold change
EXT1 fold change Average 1h100/1hK1 (EXT1; 100 μM, 1 h vs 0.05% DMSO): 0.8358 fold change
EXT1 fold change Average 24h100/24hK1 (EXT1; 100 μM, 24 h vs 0.05% DMSO): 0.6022 fold change
EXT1 fold change Average 48h100/48hK1 (EXT1; 100 μM, 48 h vs 0.05% DMSO): 0.689 fold change
HS3ST3A1 fold change Average 1h30/1hK1 (HS3ST3A1; 30 μM, 1 h vs 0.05% DMSO): 1.027 fold change
HS3ST3A1 fold change Average 24h30/24hK1 (HS3ST3A1; 30 μM, 24 h vs 0.05% DMSO): 0.835 fold change
HS3ST3A1 fold change Average 48h30/48hK1 (HS3ST3A1; 30 μM, 48 h vs 0.05% DMSO): 0.7933 fold change
HS3ST3A1 fold change Average 1h60/1hK1 (HS3ST3A1; 60 μM, 1 h vs 0.05% DMSO): 0.9002 fold change
HS3ST3A1 fold change Average 24h60/24hK1 (HS3ST3A1; 60 μM, 24 h vs 0.05% DMSO): 0.5744 fold change
HS3ST3A1 fold change Average 48h61/48hK1 (HS3ST3A1; 60 μM, 48 h vs 0.05% DMSO): 0.6043 fold change
HS3ST3A1 fold change Average 1h100/1hK1 (HS3ST3A1; 100 μM, 1 h vs 0.05% DMSO): 1.047 fold change
HS3ST3A1 fold change Average 24h100/24hK1 (HS3ST3A1; 100 μM, 24 h vs 0.05% DMSO): 0.5452 fold change
HS3ST3A1 fold change Average 48h100/48hK1 (HS3ST3A1; 100 μM, 48 h vs 0.05% DMSO): 0.569 fold change
MAN2B1 fold change Average 1h30/1hK1 (MAN2B1; 30 μM, 1 h vs 0.05% DMSO): 1.0342 fold change
MAN2B1 fold change Average (MAN2B1; 30 μM): 1.036 fold change
MAN2B1 fold change Average 1h60/1hK1 (MAN2B1; 60 μM, 1 h vs 0.05% DMSO): 0.8507 fold change
MAN2B1 fold change Average (MAN2B1; 60 μM): 1.586 fold change
MAN2B1 fold change Average 1h100/1hK1 (MAN2B1; 100 μM, 1 h vs 0.05% DMSO): 0.9864 fold change
MAN2B1 fold change Average (MAN2B1; 100 μM): 1.924 fold change
HEXA fold change Average 1h30/1hK1 (HEXA; 30 μM, 1 h vs 0.05% DMSO): 1.2226 fold change
HEXA fold change Average (HEXA; 30 μM): 1.0817 fold change
HEXA fold change Average 1h60/1hK1 (HEXA; 60 μM, 1 h vs 0.05% DMSO): 1.174 fold change
HEXA fold change Average (HEXA; 60 μM): 1.474 fold change
HEXA fold change Average 1h100/1hK1 (HEXA; 100 μM, 1 h vs 0.05% DMSO): 1.042 fold change
HEXA fold change Average (HEXA; 100 μM): 1.621 fold change
GAG synthesis [2]: reduces levels of GAG synthesis
storage depositions in cells [2]: causes disappearance of the storage depositions in cells
ARSG fold change Average 1h30/1hK1 (ARSG; 30 μM, 1 h vs 0.05% DMSO): 1.083 fold change
ARSG fold change Average (ARSG; 30 μM): 1.3921 fold change
ARSG fold change Average 1h60/1hK1 (ARSG; 60 μM, 1 h vs 0.05% DMSO): 1.204 fold change
ARSG fold change Average (ARSG; 60 μM): 2.488 fold change
ARSG fold change Average 1h100/1hK1 (ARSG; 100 μM, 1 h vs 0.05% DMSO): 0.961 fold change
ARSG fold change Average (ARSG; 100 μM): 1.81 fold change
NPC1 fold change Average 1h30/1hK1 (NPC1; 30 μM, 1 h vs 0.05% DMSO): 0.9973 fold change
NPC1 fold change Average (NPC1; 30 μM): 1.567 fold change
NPC1 fold change Average 1h60/1hK1 (NPC1; 60 μM, 1 h vs 0.05% DMSO): 1.035 fold change
NPC1 fold change Average (NPC1; 60 μM): 1.875 fold change
NPC1 fold change Average 1h100/1hK1 (NPC1; 100 μM, 1 h vs 0.05% DMSO): 0.9825 fold change
NPC1 fold change Average (NPC1; 100 μM): 2.269 fold change
